Source: patent US5241087A (priority 1992, dated 1993)

Tested on: oxynitrilase enzyme from sorghum
Assay: not given
Conditions: 6 Phytochemistry 473 (1967); cited from earlier work

Structure (SMILES) | specificity of sorghum oxynitrilase for dehydrocyanation of substrate
N#CC(O)c1ccc(O)cc1 (stereo not drawn) [p-hydroxybenzaldehyde cyanohydrin] | appears to be specific

Tested on: (R)-oxynitrilase
Assay: Relative rate of dehydrocyanation of cyanohydrins by soluble (R)-oxynitrilase (initial rate studies, absorbance)
Type: biochemical
Conditions: (R)-oxynitrilase with 0.21 mM solution of cyanohydrin; relative to benzaldehyde cyanohydrin = 1.0
Procedure: The following standardized assay was utilized to measure the activity of oxynitrilase set forth in the Examples which follow. A solution of enzyme was prepared in 0.1M (pH 5.5) citrate buffer. A 3-ml sample of enzyme solution was combined with 30 microliters of 0.21M benzaldehyde cyanohydrin and the rate of increase in absorbance at 250 nm recorded. Then, the same procedure was followed with a 3-ml sample of 0.1M (pH 5.5) citrate buffer to obtain the background, non-enzymatic, reaction. The activity in units/ml was calculated by subtracting the slope of the non-enzymatic reaction from the slope of the enzymatic reaction and converting the absorbance change with time to concentration change with time using a molar extinction coefficient of 13,200 M^-1 cm^-1.
Relative rates of dehydrocyanation of different cyanohydrins subjected to the action of the soluble catalyst (R)-oxynitrilase were determined from initial rate studies. A solution of (R)-oxynitrilase was combined with a 0.21 mM solution of cyanohydrin and the rate of increase of absorbance at the wavelength corresponding to the absorption maxima was monitored as described above in connection with the measurement of catalyst activity. The measured activity was calculated using the appropriate extinction coefficient for the corresponding aldehyde.

Structure (SMILES) | Relative Rate (dehydrocyanation)
Cc1ccc(C(O)C#N)o1 (stereo not drawn) [5-Methylfurfural cyanohydrin] | 2.8
N#CC(O)c1ccccc1 (stereo not drawn) [Benzaldehyde cyanohydrin] | 1.0
N#CC(O)C=Cc1ccccc1 (stereo not drawn) [Cinnamaldehyde cyanohydrin] | 0.05
CC=CC(O)C#N (stereo not drawn) [Crotonaldehyde cyanohydrin] | 0.90
N#CC(O)c1ccco1 (stereo not drawn) [Furfural cyanohydrin] | 2.5
N#CC(O)c1ccc2c(c1)OCO2 (stereo not drawn) [Piperonal cyanohydrin] | 2.1
COc1cccc(C(O)C#N)c1 (stereo not drawn) [m-Anisaldehyde cyanohydrin] | 0.19
COc1ccc(C(O)C#N)cc1 (stereo not drawn) [p-Anisaldehyde cyanohydrin] | 0.17
CCc1ccc(C(O)C#N)cc1 (stereo not drawn) [p-Ethylbenzaldehyde cyanohydrin] | 0.13
Cc1ccc(C(O)C#N)cc1 (stereo not drawn) [p-Tolualdehyde cyanohydrin] | 0.45

Tested on: not listed separately
Assay: Permeability through supported-gas membrane (microporous polypropylene hollow fibers, system of FIG. 1)
Conditions: supported-gas membrane system of FIG. 1

Structure (SMILES) | average permeability relative to the permeability of benzaldehyde cyanohydrin
O=Cc1ccccc1 [benzaldehyde] | roughly 700 times
